Data taken from ChEMBL document CHEMBL1201862, “PubChem BioAssay data set” (2004).
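48-hour exposure; five concentrations; linearly interpolated endpoints. Abbreviation: GI50, concentration required for 50% inhibition of growth.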 Calls of active or inactive are those of the source. Cut-off read from the data, not from the text of the source: active = GI50 up to about 1.1 µM and inactive = higher.

Assays:
Assay in all cases: DTP human tumour cell line panel, 48 h
DMS-114 = test system: DMS-114
DMS-273 = test system: DMS-273
HCT-15 = test system: HCT-15
KM-20L2 = test system: KM-20L2
LXFL 529 = test system: LXFL 529
Malme-3M = test system: Malme-3M
OVCAR-4 = test system: OVCAR-4
SF-295 = test system: SF-295
SN12C = test system: SN12C
XF498 = test system: XF498
SNB-78 = test system: SNB-78
U-251 = test system: U-251
MCF7 = test system: MCF7
NCI/ADR-RES = test system: NCI/ADR-RES
BT-549 = test system: BT-549
DU-145 = test system: DU-145
MDA-MB-231 = test system: MDA-MB-231
MDA-MB-435 = test system: MDA-MB-435
MDA-N = test system: MDA-N
PC-3 = test system: PC-3

Row | SMILES | GI50 (DMS-114) | GI50 (DMS-273) | GI50 (HCT-15) | GI50 (KM-20L2) | GI50 (LXFL 529) | GI50 (Malme-3M) | GI50 (OVCAR-4) | GI50 (SF-295) | GI50 (SN12C) | GI50 (XF498) | GI50 (SNB-78) | GI50 (U-251) | GI50 (MCF7) | GI50 (NCI/ADR-RES) | GI50 (BT-549) | GI50 (DU-145) | GI50 (MDA-MB-231) | GI50 (MDA-MB-435) | GI50 (MDA-N) | GI50 (PC-3)
1 | O=C1OC2(OC2c2ccc(Cl)cc2)c2ccccc21 (configuration not stated) | 64.7 µM (inactive) | > 100 µM (inactive) | > 100 µM | > 100 µM (inactive) | 22.7 µM (inactive) | > 100 µM (inactive) | 42.6 µM (inactive) | 85.7 µM (inactive) | > 100 µM (inactive) | 43.4 µM (inactive) | – | – | – | – | – | – | – | – | – | –
2 | O=c1oc2ccccc2n1P(=O)(n1c(=O)oc2ccccc21)n1c(=O)oc2ccccc21 | > 100 µM (inactive) | > 100 µM (inactive) | – | > 100 µM (inactive) | > 100 µM (inactive) | > 100 µM (inactive) | > 100 µM (inactive) | > 100 µM (inactive) | > 100 µM (inactive) | > 100 µM (inactive) | > 100 µM (inactive) | > 100 µM (inactive) | – | – | – | – | – | – | – | –
3 | O=C1C(Cl)N(c2ccccc2)C1c1c[nH]c2ccccc12 (configuration not stated) | > 100 µM (inactive) | – | – | > 100 µM (inactive) | > 100 µM (inactive) | > 100 µM (inactive) | > 100 µM (inactive) | > 100 µM (inactive) | > 100 µM (inactive) | > 100 µM (inactive) | – | > 100 µM (inactive) | – | – | – | – | – | – | – | –
4 | O=C(O)c1cc2sc(C(=O)O)cc2s1 | > 100 µM (inactive) | > 100 µM (inactive) | > 100 µM | > 100 µM (inactive) | > 100 µM (inactive) | > 100 µM (inactive) | > 100 µM (inactive) | > 100 µM (inactive) | > 100 µM (inactive) | > 100 µM (inactive) | > 100 µM (inactive) | > 100 µM (inactive) | – | – | – | – | – | – | – | –
5 | NC1(C(=O)O)CCCC1 [CYCLOLEUCINE] | > 625 µM (inactive) | > 625 µM (inactive) | > 625 µM | > 625 µM (inactive) | – | > 625 µM (inactive) | > 625 µM (inactive) | > 625 µM (inactive) | > 91 µM (inactive) | 5.77 µM (inactive) | > 244 µM (inactive) | > 625 µM (inactive) | > 625 µM (inactive) | > 625 µM (inactive) | – | – | – | – | – | –
6 | Nc1n[nH]c2nc3ccccc3nc12 [QUINOXALINE1] | – | – | 75.2 µM | – | – | > 100 µM (inactive) | > 100 µM (inactive) | > 100 µM (inactive) | > 100 µM (inactive) | – | – | > 100 µM (inactive) | 61.2 µM (inactive) | > 100 µM (inactive) | 64.6 µM (inactive) | 63.5 µM (inactive) | > 100 µM (inactive) | > 100 µM (inactive) | > 100 µM (inactive) | > 100 µM (inactive)
7 | O=[N+]([O-])C(=C/c1ccccc1)/C(=C\c1ccccc1)[N+](=O)[O-] | – | – | – | – | – | – | 21.3 µM (inactive) | 18.7 µM (inactive) | 23.4 µM (inactive) | – | – | 15.6 µM (inactive) | 14.9 µM (inactive) | 18.7 µM (inactive) | 17.6 µM (inactive) | 16.1 µM (inactive) | 13.2 µM (inactive) | 16.5 µM (inactive) | 17.1 µM (inactive) | 19.3 µM (inactive)
8 | COc1nc2ccc(CNc3ccc(C(=O)NC(CCC(=O)O)C(=O)O)cc3)cc2nc1OC (configuration not stated) | – | – | 53.1 µM | – | – | 90.8 µM (inactive) | > 100 µM (inactive) | > 100 µM (inactive) | > 100 µM (inactive) | – | – | > 100 µM (inactive) | > 100 µM (inactive) | > 100 µM (inactive) | > 100 µM (inactive) | > 100 µM (inactive) | > 100 µM (inactive) | > 100 µM (inactive) | > 100 µM (inactive) | 44.6 µM (inactive)
9 | C/C(=C1/N=C(c2cc([N+](=O)[O-])ccc2Cl)N(c2ccc(Br)cc2)C1=O)c1cc2ccccc2oc1=O | 10.1 µM (inactive) | – | 8.22 µM | 17.6 µM (inactive) | 6.78 µM (inactive) | 34.8 µM (inactive) | 18.3 µM (inactive) | 80.5 µM (inactive) | 20.3 µM (inactive) | – | 31.6 µM (inactive) | 48.3 µM (inactive) | – | – | – | – | – | – | – | –
10 | CC(=O)OCC1OC(n2c(-c3ccc(C)cc3)cc(-c3ccco3)c(C#N)c2=S)C(OC(C)=O)C(OC(C)=O)C1OC(C)=O (configuration not stated) | – | – | > 100 µM | – | – | > 100 µM (inactive) | > 100 µM (inactive) | > 100 µM (inactive) | > 100 µM (inactive) | – | – | 33.8 µM (inactive) | 40.6 µM (inactive) | 84.3 µM (inactive) | 38.7 µM (inactive) | > 100 µM (inactive) | 22.9 µM (inactive) | > 100 µM (inactive) | > 100 µM (inactive) | > 100 µM (inactive)
11 | COc1cc2c(cc1OC)-c1cc3ccccc3c(=O)n1CC2 | – | – | – | – | – | 16.4 µM (inactive) | 41.6 µM (inactive) | 15.3 µM (inactive) | 26.1 µM (inactive) | – | – | 16.4 µM (inactive) | 28.3 µM (inactive) | 25.2 µM (inactive) | 29.2 µM (inactive) | 25.6 µM (inactive) | 2.17 µM (inactive) | 22.8 µM (inactive) | 28.2 µM (inactive) | 2.68 µM (inactive)
12 | C=CCP(=O)(CC=C)C(Cl)Cl | – | – | > 100 µM | – | – | – | > 100 µM (inactive) | > 100 µM (inactive) | > 100 µM (inactive) | – | – | > 100 µM (inactive) | > 100 µM (inactive) | > 100 µM (inactive) | – | > 100 µM (inactive) | > 100 µM (inactive) | – | > 100 µM (inactive) | > 100 µM (inactive)
13 | COc1ccc2c(c1)CC1Cc3ccccc3CCN1C2 (configuration not stated) | – | – | 61.2 µM | – | – | 42.3 µM (inactive) | > 100 µM (inactive) | 29.2 µM (inactive) | > 100 µM (inactive) | – | – | 76 µM (inactive) | 74.5 µM (inactive) | 52 µM (inactive) | > 100 µM (inactive) | 61.2 µM (inactive) | 6.65 µM (inactive) | 34.2 µM (inactive) | 47.9 µM (inactive) | 25.9 µM (inactive)
14 | C=C(C(=O)C(=O)Oc1ccc(Cl)cc1)C(=O)c1ccc(C)cc1 | 30.9 µM (inactive) | 39.2 µM (inactive) | 38.8 µM | 59.7 µM (inactive) | 27.9 µM (inactive) | 78.3 µM (inactive) | > 100 µM (inactive) | 76 µM (inactive) | 49.9 µM (inactive) | > 100 µM (inactive) | 65 µM (inactive) | 20.7 µM (inactive) | – | – | – | – | – | – | – | –
15 | Cc1c2cnccc2c(C)c2c1c1ccccc1n2CCCCCCNCc1ccccc1 | 1.83 µM (inactive) | 1.21 µM (inactive) | 1.31 µM | 1.49 µM (inactive) | – | 2.44 µM (inactive) | 0.787 µM (active) | 1.82 µM (inactive) | 1.59 µM (inactive) | 2.29 µM (inactive) | 1.96 µM (inactive) | 2.05 µM (inactive) | 1.45 µM (inactive) | 0.74 µM (active) | – | – | – | – | – | –
